How the values were obtained:
[1] = Particle size analysis, Horiba light scattering; oral excipient screen (Example 1); type: physicochemical; details: unmilled aqueous suspension of 5% salsalate, FIG. 1B
Method: The pH of salsalate in water was slightly below 4, so no pH adjustment was attempted. The samples were analyzed using Horiba light scattering particle size distributions (PSD). One of several acceptable formulations was selected to scale up to a higher concentration of API using high speed media milling. […] Eight different aqueous nanosuspensions of salsalate, with differing surfactants or combinations of surfactants, were prepared and analyzed for particle size. The first 7 formulations were made by roller milling with a Roller-Mill RM20 (ZOZ GmbH) with YTZ-800 grinding media (Tosoh Corp.) at 192 rpm. The 8th formulation was made via high speed media milling (5000 rpm). The particle sizes of the resultant compositions were then analyzed using a Horiba light scattering particle size analyzer. The compositions and results of the particle size analyses are shown below in Table 2 and in FIGS. 2A, 2B, 3A, 3B etc. through 9A and 9B.

[2] = pH of salsalate in water; type: physicochemical
Method: The pH of salsalate in water was slightly below 4, so no pH adjustment was attempted. The samples were analyzed using Horiba light scattering particle size distributions (PSD). One of several acceptable formulations was selected to scale up to a higher concentration of API using high speed media milling.

[3] = in terms of salicylic acid equivalents; cited from earlier work
[4] = studies of 3 weeks or more in duration; cited from earlier work
[5] = non-nano salsalate 3.0, 3.5, 4.0 g/d vs placebo, type two diabetes, P=0.003, FIG. 28A; cited from earlier work

For `O=C(Oc1ccccc1C(=O)O)c1ccccc1O` [salsalate, 2-hydroxybenzoyloxy benzoic acid], the D90 particle size [1] was 435 μm, the mean particle size [1] was 244 μm and the median particle size [1] was 222.24 μm. The “pH of salsalate in water” value [2] was “below 4”, the “salicylic acid obtained relative to an equivalent dose of aspirin, based on relative AUC values” [3] was “approximately 84%” and the “study withdrawal from the salsalate group for any reason” value [4] was 17-38%. For the same molecule, the “HbAlc level over time, F test for the overall effect of treatment group” value [5] was “significant”.

From patent US11819488B2, “Nanosuspensions of salsalate and methods of using the same” (RHNanoPharma, priority 2018, dated 2023)
